# Measured values as given in PubChem BioAssay (NCI).
#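 These data come from cells grown in 96-well plates and exposed to compound for 48 hours at five concentrations. TGI denotes the concentration required for complete inhibition of growth.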
# What was measured:
# Assay in all cases: NCI anticancer screen, dose series, 48 h
# A549 NSCLC = system: A549 NSCLC
# ACHN renal = system: ACHN renal
# CAKI-1 renal = system: CAKI-1 renal
# DLD-1 colon = system: DLD-1 colon
# DMS 114 small cell lung = system: DMS 114 small cell lung
# DMS 273 small cell lung = system: DMS 273 small cell lung
# EKVX NSCLC = system: EKVX NSCLC
# HCC-2998 colon = system: HCC-2998 colon
# HOP-18 NSCLC = system: HOP-18 NSCLC
# HOP-62 NSCLC = system: HOP-62 NSCLC
# HOP-92 NSCLC = system: HOP-92 NSCLC
# HT29 colon = system: HT29 colon
# KM12 colon = system: KM12 colon
# KM20L2 colon = system: KM20L2 colon
# LOX IMVI melanoma = system: LOX IMVI melanoma
# LXFL 529 NSCLC = system: LXFL 529 NSCLC
# M14 melanoma = system: M14 melanoma
# M19-MEL melanoma = system: M19-MEL melanoma
# MALME-3M melanoma = system: MALME-3M melanoma
# NCI-H226 lung = system: NCI-H226 lung
# NCI-H23 lung = system: NCI-H23 lung
# NCI-H460 lung = system: NCI-H460 lung
# NCI-H522 lung = system: NCI-H522 lung
# OVCAR-5 ovarian = system: OVCAR-5 ovarian
# OVCAR-8 ovarian = system: OVCAR-8 ovarian
# RXF 393 renal = system: RXF 393 renal
# SF-268 CNS = system: SF-268 CNS
# SF-295 CNS = system: SF-295 CNS
# SF-539 CNS = system: SF-539 CNS
# SK-MEL-2 melanoma = system: SK-MEL-2 melanoma
# SK-MEL-28 melanoma = system: SK-MEL-28 melanoma
# SN12C renal = system: SN12C renal
# SNB-19 CNS = system: SNB-19 CNS
# SNB-75 CNS = system: SNB-75 CNS
# SNB-78 CNS = system: SNB-78 CNS
# SR leukemia = system: SR leukemia
# SW-620 colon = system: SW-620 colon
# TK-10 renal = system: TK-10 renal
# U251 CNS = system: U251 CNS
# UACC-257 melanoma = system: UACC-257 melanoma
# UO-31 renal = system: UO-31 renal
# XF 498 CNS = system: XF 498 CNS
# 786-0 renal = system: 786-0 renal
# CCRF-CEM leukemia = system: CCRF-CEM leukemia
# COLO 205 colon = system: COLO 205 colon
# HCT-116 colon = system: HCT-116 colon
# HCT-15 colon = system: HCT-15 colon
# HL-60(TB) leukemia = system: HL-60(TB) leukemia
# IGROV1 ovarian = system: IGROV1 ovarian
# K-562 leukemia = system: K-562 leukemia
# MOLT-4 leukemia = system: MOLT-4 leukemia
# OVCAR-3 ovarian = system: OVCAR-3 ovarian
# OVCAR-4 ovarian = system: OVCAR-4 ovarian
# RPMI-8226 leukemia = system: RPMI-8226 leukemia
# SK-MEL-5 melanoma = system: SK-MEL-5 melanoma
# SK-OV-3 ovarian = system: SK-OV-3 ovarian
# UACC-62 melanoma = system: UACC-62 melanoma
# A498 renal = system: A498 renal
smiles,measurement,setting,value
CCC(C)CN1C(=O)NC(Cc2ccccc2)C1=O (configuration not stated),TGI,A549 NSCLC,> 100 µM
same,TGI,ACHN renal,> 100 µM
same,TGI,CAKI-1 renal,> 100 µM
same,TGI,DLD-1 colon,> 100 µM
same,TGI,DMS 114 small cell lung,> 100 µM
same,TGI,DMS 273 small cell lung,> 100 µM
same,TGI,EKVX NSCLC,> 100 µM
same,TGI,HCC-2998 colon,> 100 µM
same,TGI,HOP-18 NSCLC,> 100 µM
same,TGI,HOP-62 NSCLC,> 100 µM
same,TGI,HOP-92 NSCLC,90.8 µM
same,TGI,HT29 colon,> 100 µM
same,TGI,KM12 colon,> 100 µM
same,TGI,KM20L2 colon,> 100 µM
same,TGI,LOX IMVI melanoma,> 100 µM
same,TGI,LXFL 529 NSCLC,> 100 µM
same,TGI,M14 melanoma,> 100 µM
same,TGI,M19-MEL melanoma,> 100 µM
same,TGI,MALME-3M melanoma,> 100 µM
same,TGI,NCI-H226 lung,> 100 µM
same,TGI,NCI-H23 lung,> 100 µM
same,TGI,NCI-H460 lung,> 100 µM
same,TGI,NCI-H522 lung,> 100 µM
same,TGI,OVCAR-5 ovarian,> 100 µM
same,TGI,OVCAR-8 ovarian,> 100 µM
same,TGI,RXF 393 renal,> 100 µM
same,TGI,SF-268 CNS,> 100 µM
same,TGI,SF-295 CNS,> 100 µM
same,TGI,SF-539 CNS,> 100 µM
same,TGI,SK-MEL-2 melanoma,> 100 µM
same,TGI,SK-MEL-28 melanoma,> 100 µM
same,TGI,SN12C renal,> 100 µM
same,TGI,SNB-19 CNS,> 100 µM
same,TGI,SNB-75 CNS,> 100 µM
same,TGI,SNB-78 CNS,> 100 µM
same,TGI,SR leukemia,> 100 µM
same,TGI,SW-620 colon,> 100 µM
same,TGI,TK-10 renal,> 100 µM
same,TGI,U251 CNS,> 100 µM
same,TGI,UACC-257 melanoma,79.5 µM
same,TGI,UO-31 renal,> 100 µM
same,TGI,XF 498 CNS,> 100 µM
O=C(NC(=S)Nc1ccccc1)c1ccc([N+](=O)[O-])cc1,TGI,786-0 renal,> 100 µM
same,TGI,A549 NSCLC,> 100 µM
same,TGI,ACHN renal,> 100 µM
same,TGI,CAKI-1 renal,> 100 µM
same,TGI,CCRF-CEM leukemia,> 100 µM
same,TGI,COLO 205 colon,> 100 µM
same,TGI,DLD-1 colon,> 100 µM
same,TGI,DMS 114 small cell lung,44.5 µM
same,TGI,DMS 273 small cell lung,> 100 µM
same,TGI,EKVX NSCLC,> 100 µM
same,TGI,HCC-2998 colon,> 100 µM
same,TGI,HCT-116 colon,> 100 µM
same,TGI,HCT-15 colon,> 100 µM
same,TGI,HL-60(TB) leukemia,> 100 µM
same,TGI,HOP-18 NSCLC,> 100 µM
same,TGI,HOP-62 NSCLC,> 100 µM
same,TGI,HOP-92 NSCLC,> 100 µM
same,TGI,HT29 colon,> 100 µM
same,TGI,IGROV1 ovarian,> 100 µM
same,TGI,K-562 leukemia,> 100 µM
same,TGI,KM12 colon,> 100 µM
same,TGI,KM20L2 colon,> 100 µM
same,TGI,LOX IMVI melanoma,> 100 µM
same,TGI,LXFL 529 NSCLC,> 100 µM
same,TGI,M14 melanoma,> 100 µM
same,TGI,M19-MEL melanoma,> 100 µM
same,TGI,MALME-3M melanoma,> 100 µM
same,TGI,MOLT-4 leukemia,> 100 µM
same,TGI,NCI-H23 lung,> 100 µM
same,TGI,NCI-H460 lung,> 100 µM
same,TGI,NCI-H522 lung,86.6 µM
same,TGI,OVCAR-3 ovarian,> 100 µM
same,TGI,OVCAR-4 ovarian,> 100 µM
same,TGI,OVCAR-8 ovarian,> 100 µM
same,TGI,RPMI-8226 leukemia,> 100 µM
same,TGI,SF-268 CNS,> 100 µM
same,TGI,SF-295 CNS,> 100 µM
same,TGI,SK-MEL-28 melanoma,> 100 µM
same,TGI,SK-MEL-5 melanoma,> 100 µM
same,TGI,SK-OV-3 ovarian,> 100 µM
same,TGI,SN12C renal,> 100 µM
same,TGI,SNB-75 CNS,> 100 µM
same,TGI,SNB-78 CNS,> 100 µM
same,TGI,SW-620 colon,> 100 µM
same,TGI,TK-10 renal,> 100 µM
same,TGI,UACC-257 melanoma,> 100 µM
same,TGI,UACC-62 melanoma,> 100 µM
same,TGI,UO-31 renal,> 100 µM
same,TGI,XF 498 CNS,> 100 µM
O=C1C2C=CC(n3[nH]c(=O)n(Cc4ccccc4)c3=O)CC2C(=O)N1c1cccc(Cl)c1 (configuration not stated),TGI,786-0 renal,> 100 µM
same,TGI,A498 renal,> 100 µM
same,TGI,A549 NSCLC,> 100 µM
same,TGI,ACHN renal,> 100 µM
same,TGI,CAKI-1 renal,> 100 µM
same,TGI,CCRF-CEM leukemia,> 100 µM
same,TGI,COLO 205 colon,> 100 µM
same,TGI,DLD-1 colon,> 100 µM
same,TGI,DMS 114 small cell lung,> 100 µM
same,TGI,DMS 273 small cell lung,> 100 µM
same,TGI,EKVX NSCLC,> 100 µM
same,TGI,HCC-2998 colon,> 100 µM
same,TGI,HCT-116 colon,> 100 µM
same,TGI,HCT-15 colon,> 100 µM
same,TGI,HL-60(TB) leukemia,> 100 µM
same,TGI,HOP-18 NSCLC,> 100 µM
same,TGI,HOP-62 NSCLC,> 100 µM
same,TGI,HOP-92 NSCLC,> 100 µM
same,TGI,HT29 colon,> 100 µM
same,TGI,IGROV1 ovarian,> 100 µM
same,TGI,K-562 leukemia,> 100 µM
same,TGI,KM12 colon,> 100 µM
same,TGI,KM20L2 colon,> 100 µM
same,TGI,LOX IMVI melanoma,> 100 µM
same,TGI,LXFL 529 NSCLC,> 100 µM
same,TGI,M14 melanoma,> 100 µM
same,TGI,M19-MEL melanoma,> 100 µM
same,TGI,MALME-3M melanoma,> 100 µM
same,TGI,NCI-H226 lung,> 100 µM
same,TGI,NCI-H23 lung,> 100 µM
same,TGI,NCI-H460 lung,> 100 µM
same,TGI,NCI-H522 lung,> 100 µM
same,TGI,OVCAR-3 ovarian,> 100 µM
same,TGI,OVCAR-4 ovarian,> 100 µM
same,TGI,OVCAR-5 ovarian,> 100 µM
same,TGI,OVCAR-8 ovarian,> 100 µM
same,TGI,RXF 393 renal,> 100 µM
same,TGI,SF-268 CNS,> 100 µM
same,TGI,SF-295 CNS,> 100 µM
same,TGI,SF-539 CNS,> 100 µM
same,TGI,SK-MEL-2 melanoma,> 100 µM
same,TGI,SK-MEL-28 melanoma,> 100 µM
same,TGI,SK-MEL-5 melanoma,> 100 µM
same,TGI,SK-OV-3 ovarian,> 100 µM
same,TGI,SN12C renal,> 100 µM
same,TGI,SNB-19 CNS,> 100 µM
same,TGI,SNB-75 CNS,> 100 µM
same,TGI,SNB-78 CNS,> 100 µM
same,TGI,SR leukemia,> 100 µM
same,TGI,SW-620 colon,> 100 µM
same,TGI,TK-10 renal,> 100 µM
same,TGI,U251 CNS,> 100 µM
same,TGI,UACC-257 melanoma,> 100 µM
same,TGI,UACC-62 melanoma,> 100 µM
same,TGI,UO-31 renal,> 100 µM
same,TGI,XF 498 CNS,> 100 µM
